Measured values taken from patent US8318719B2, “Inhibitors of Bruton's tyrosine kinase” (Roche Palo Alto LLC, priority 2009, dated 2012).

These compounds were tested on B cell receptor-mediated activation of B cells in human blood (assay: Inhibition of B cell activation in whole blood measured by CD69 expression). Conditions: anti-IgM stimulation 20 h, concentration decreasing by 50% the percentage of CD69-positive cells that are also CD20-positive.
Type: cell-based
Description: Inhibition of B Cell Activation in Whole Blood Measured by CD69 Expression
A procedure to test the ability of Btk inhibitors to suppress B cell receptor-mediated activation of B cells in human blood is as follows:
Human whole blood (HWB) is obtained from healthy volunteers, with the following restrictions: 24 hr drug-free, non-smokers. Blood is collected by venipuncture into Vacutainer tubes anticoagulated with sodium heparin. Test compounds are diluted to ten times the desired starting drug concentration in PBS (20×), followed by three-fold serial dilutions in 10% DMSO in PBS to produce a nine point dose-response curve. 5.5 μl of each compound dilution is added in duplicate to a 2 mL 96-well V bottom plate (Analytical Sales and Services, #59623-23); 5.5 μl of 10% DMSO in PBS is added to control and no-stimulus wells. HWB ([…] is added to each well, and after mixing the plates are incubated at 37 C, 5% CO2, 100% humidity for 30 minutes. Goat F(ab′)2 anti-human IgM (Southern Biotech, #2022-14) (10 μl of a 500 μ/mL solution, 50 μg/mL final concentration) is added to each well (except the no-stimulus wells) with mixing and the plates are incubated for an additional 20 hours. At the end of the 20 hour incubation, samples are incubated with florescent-probe-labeled anti-bodies (15 ul PE Mouse anti-Human CD20, BD Pharmingen, #555623, and/or 20 ul APC Mouse anti-Human CD69, BD Pharmingen #555533) for 30 minutes, at 37 C, 5% CO2, 100% humidity. Included are induced control, unstained and single stains for compensation adjustments and initial voltage settings. Samples are then lysed with 1 mL of 1× Pharmingen Lyse Buffer (BD Pharmingen #555899), and plates are centrifuged at 1800 rpm for 5 minutes. Supernatants are removed via suction and the remaining pellets are lysed again with another 1 mL of 1× Pharmingen Lyse Buffer, and plates are spun down as before. Supernatants are aspirated and remaining pellets are washed in FACs buffer (PBS+1% FBS). After a final spin, the supernantants are removed and pellets are resuspended in 180 ul of FACs buffer. Samples are transferred to a 96 well plate suitable to be run on the HTS 96 well system on the BD LSR II flow cytometer. Using appropriate excitation and emission wavelengths for the fluorophores used, data are acquired and percent positive cell values are obtained using Cell Quest Software. Results are initially analyzed by FACS analysis software (Flow Jo). […] The IC50 values are calculated using XLfit software version 3, equation 201.

Row | Compound | IC50
1 | Cn1cc(-c2cccc(N3CCNc4cc(C5CC5)ccc4C3=O)c2CO)cc(Nc2ccc(C(=O)N3CCOCC3)cn2)c1=O [Compound I-1, 8-Cyclopropyl-4-(2-hydroxymethyl-3-{1-methyl-5-[5-(morpholine-4-carbonyl)-pyridin-2-ylamino]-6-oxo-1,6-dihydro-pyridin-3-yl}-phenyl)-1,2,3,4-tetrahydro-benzo[e][1,4]diazepin-5-one] | 111 nM
2 | Cn1cc(-c2cccc(N3CCNc4cc(C5CC5)ccc4C3=O)c2CO)cc(Nc2ccc(N3CCOCC3)cn2)c1=O [Compound I-2, 8-Cyclopropyl-4-{2-hydroxymethyl-3-[1-methyl-5-(5-morpholin-4-yl-pyridin-2-ylamino)-6-oxo-1,6-dihydro-pyridin-3-yl]-phenyl}-1,2,3,4-tetrahydro-benzo[e][1,4]diazepin-5-one] | 96 nM
3 | Cn1cc(-c2cccc(N3CCNc4cc(C(C)(C)C)ccc4C3=O)c2CO)cc(Nc2ccc(C(=O)N3CCOCC3)cn2)c1=O [Compound I-3, 8-tert-Butyl-4-(2-hydroxymethyl-3-{1-methyl-5-[5-(morpholine-4-carbonyl)-pyridin-2-ylamino]-6-oxo-1,6-dihydro-pyridin-3-yl}-phenyl)-1,2,3,4-tetrahydro-benzo[e][1,4]diazepin-5-one] | 18 nM
4 | CN1CCN(c2ccc(Nc3cc(-c4cccc(N5CCNc6cc(C(C)(C)C)ccc6C5=O)c4CO)cn(C)c3=O)nc2)CC1 [Compound I-4, 8-tert-Butyl-4-(2-hydroxymethyl-3-{1-methyl-5-[5-(4-methyl-piperazin-1-yl)-pyridin-2-ylamino]-6-oxo-1,6-dihydro-pyridin-3-yl}-phenyl)-1,2,3,4-tetrahydro-benzo[e][1,4]diazepin-5-one] | 38 nM
5 | Cn1cc(-c2cccc(N3CCOc4cc(C(C)(C)C)ccc4C3=O)c2CO)cc(Nc2ccc(C(=O)N3CCOCC3)cn2)c1=O [II-1, 8-tert-Butyl-4-(2-hydroxymethyl-3-{1-methyl-5-[5-(morpholine-4-carbonyl)-pyridin-2-ylamino]-6-oxo-1,6-dihydro-pyridin-3-yl}-phenyl)-3,4-dihydro-2H-benzo[f][1,4]oxazepin-5-one] | 16 nM
6 | CN1CCN(c2ccc(Nc3cc(-c4cccc(N5CCOc6cc(C(C)(C)C)ccc6C5=O)c4CO)cn(C)c3=O)nc2)CC1 [II-2, 8-tert-Butyl-4-(2-hydroxymethyl-3-{1-methyl-5-[5-(4-methyl-piperazin-1-yl)-pyridin-2-ylamino]-6-oxo-1,6-dihydro-pyridin-3-yl}-phenyl)-3,4-dihydro-2H-benzo[f][1,4]oxazepin-5-one] | 4 nM
7 | CCN1CCN(c2ccc(Nc3cc(-c4cccc(N5CCOc6cc(C(C)(C)C)ccc6C5=O)c4CO)cn(C)c3=O)nc2)CC1 [II-3, 8-tert-Butyl-4-(3-{5-[5-(4-ethyl-piperazin-1-yl)-pyridin-2-ylamino]-1-methyl-6-oxo-1,6-dihydro-pyridin-3-yl}-2-hydroxymethyl-phenyl)-3,4-dihydro-2H-benzo[f][1,4]oxazepin-5-one] | 8 nM
